Converted amounts (≈) assume the structure as drawn.
Tests used:
[1] = physchem; format: physicochemical
Experimental: A large number of these exist but in this formulation Hydroxypropyl beta Cyclodextrin (HPbCD) is used. HPbCD also assists masking the taste of the drug.
A solubility increase of above 10 fold is achieved and the room temperature solubility of nimorazole may be increased to the more dose convenient level of 100 mg/ml.
HPbCD complexes with nimorazole over a wide molar ratio, in this example the lower ratio of […] is used, therefore 226 g of nimorazole is used with 1400 g of HPbCD.

[2] = cited from earlier work

O=[N+]([O-])c1cncn1CCN1CCOCC1 [Nimorazole, nimorazole]
solubility increase [1]: above 10 fold
solubility ([1]; aqueous with cosolvent or surfactant or cyclodextrin): 100 mg/mL (≈ 442 mM)
pKa [2]: 5.2

— patent US20130096123A1, “RADIATION SENSITISER COMPOSITIONS” (EUPHARMA PTY LTD, priority 2010, published 2013)
